In patent US20160151461A1, “Cardio-Metabolic and Vascular Effects of GLP-1 Metabolites” (THE TRUSTEES OF THE UNIVERSITY OF PENNSYLVANIA, priority 2013, published 2016):
No end group written: not given here.

What was measured:
myocardium; donor organs = experiment: myocardial glucose uptake and preconditioning of donor organs against ischemic injury (summary statement)
[1] = test system: normal, conscious, chronically instrumented dogs; experiment: hyperglycemic clamp studies in normal, conscious, chronically instrumented dogs; type: in vivo
Procedure: To determine the effect of GLP-1 (32-36) on coronary blood flow, hyperglycemic clamp studies were conducted in normal, conscious, chronically instrumented dogs (n=3), in which plasma glucose was raised to 180 mg/dl by continuous infusion of glucose (FIG. 1). The plasma glucose concentration was monitored continuously as was plasma insulin response. In the control studies, the 5 dogs underwent the 3 hour hyperglycemic clamp. On a separate occasion, the same animals underwent a 3 hour hyperglycemic clamp in which GLP-1 (32-36) was infused beginning in the second hour.
Myocardial glucose uptake is calculated as the product of the difference in the arterial-coronary sinus glucose content and the average coronary blood flow. The increase in myocardial glucose uptake is in excess of that attributable to the increase in coronary blood flow alone.

[2] = test system: patients with advanced heart failure; details: 5 weeks of continuous infusion, NYHA Class IIIB and IV; cited from earlier work
[3] = test system: conscious, chronically instrumented dogs; experiment: rapid pacing induced stress (72 hour) in conscious, chronically instrumented dogs, hemodynamic measurements; type: in vivo; details: 72 hours rapid pacing stress, vs sham vehicle
Source text: FIG. 7 illustrates characteristic instrumentation of conscious, chronically instrumented dogs studied in the laboratory. Under sterile surgical technique, the animals are instrumented as indicated and allowed to recover fully from their surgery. LV, aortic, and left atrial catheters were used to measure pressures. LV Konigsberg® transducer was used to measure isovolumic contractility and relaxation as measures of systolic and diastolic function. Ultrasonic dimension crystals were used to measure LV shortening and LV filling rates. Pacing leads were attached to the left atrial appendage. Transonics® flow probes were placed around the left circumflex coronary artery and right renal artery to measure coronary and renal blood flow.
Experiments were performed where 25 conscious, chronically instrumented dogs (FIG. 7) were subjected to a rapid pacing induced stress which recapitulates the hemodynamic perturbations experienced by patients with sudden onset of paroxysmal atrial fibrillation (FIG. 8). Dogs were studied before and daily during the 72 hour pacing stress. […] All measurements were made during intrinsic sinus rhythm 20-30 minutes after cessation of pacing. Hemodynamic measurements included: • LV systolic and diastolic pressures, mean arterial pressures, heart rate • Systolic function: LV contractility (systolic contractile function), LV fractional shortening • Diastolic function: LV isovolumic relaxation time constant, LV filling rate • Flows: systemic, coronary and renal blood flows

[4] = test system: large animal models of advanced heart failure; details: cited from earlier work
[5] = test system: patients with mild heart failure; details: infused for 48 hours, NYHA Class II; cited from earlier work
advanced heart failure = details: cited from earlier work
[6] = test system: conscious chronically instrumented dogs with pacing induced heart failure; experiment: pacing induced model of dilated cardiomyopathy in conscious chronically instrumented dogs (72 hours of rapid ventricular pacing); type: in vivo; details: after 72 hours of rapid ventricular pacing, vs Control
Procedure: In order to compare the vasoactive effects of different classes of incretins, experiments were designed to study the pacing induced model of dilated cardiomyopathy in conscious chronically instrumented dogs (FIG. 3). These animals were instrumented to examine the effects of equal concentrations of various classes of incretins on coronary blood flow and renal blood flow. All dogs underwent 72 hours of rapid ventricular pacing following which coronary flow responses were measured (Control). Rapid pacing was associated with 30-35% declines in coronary blood flow and renal blood flow respectively. […] This supports the notion that the native peptide and active metabolites have vasoactive as well as glucose-stimulatory properties. The renal vascular effects support the claims for use in heart failure complicated by renal failure (cardio-renal syndrome). The coronary vasodilator properties support the claims for the use in acute coronary syndromes and microvascular angina.

AMP kinase = experiment: isolated isovolumic rat heart, activation of AMP kinase; details: for AMPK activation in presence of EXE (inhibits activation of the GLP-1 receptor): with EXE; for AMPK activation in presence of pertussus toxin (PTX): with PTX (Gi); for AMPK activation in presence of STO609 (CAM kinase): with STO609
Source text: It is largely unknown how GLP-1 stimulates glucose uptake independent of insulin. A candidate mechanism involves the activation of AMP kinase which causes GLUT translocation and glucose uptake independent of insulin. The isolated isovolumic rat heart was studied as a model in which myocardial specific responses can be observed (FIG. 4).

[7] = in vivo; cited from earlier work

Substance: Leu-Val-Lys-Gly-Arg (LVKGR-NH2) [GLP-1 (32-36) amide]
- preconditioning donor organs against ischemic injury (myocardium; donor organs): active
- stimulating glucose uptake into myocardium in a non-insulin dependent fashion (myocardium; donor organs): active
- increase in coronary blood flow ([1]; 3 hour hyperglycemic clamp, plasma glucose 180 mg/dl, peptide infused beginning in the second hour, vs control clamp): significantly greater increase
- increase in myocardial glucose uptake ([1]; hyperglycemic clamp, matched hyperinsulinemia, vs control): significantly greater increase

Substance: His-Ala-Glu-Gly-Thr-Phe-Thr-Ser-Asp-Val-Ser-Ser-Tyr-Leu-Glu-Gly-Gln-Ala-Ala-Lys-Glu-Phe-Ile-Ala-Trp-Leu-Val-Lys-Gly-Arg [GLP-1 (7-36) amide]
- functional outcomes [2]: improved functional outcomes
- LV systolic and diastolic function [3]: mitigated the declines
- coronary blood flow [3]: preserved
- renal blood flow [3]: preserved
- systemic vascular resistance [3]: mitigated the declines in LV systolic and diastolic function and the rise
- expression of mitochondrial uncoupling protein 3 (UCP-3) and mitochondrial cytochrome oxidase (Complex IV) ([4]; in vivo, iv): increased
- mitochondrial reactive oxygen species (ROS) generation ([4]; in vivo): decreased
- cell survival pathways (ras dependent activation of p38 MAP kinase, induction of NOS2) ([4]; independent of insulin signaling pathways): activates
- benefit [5]: no benefit
- elevated levels of plasma glucagon (advanced heart failure): suppresses
- insulin action (advanced heart failure): augments
- coronary blood flow [6]: preserved coronary and renal blood flow to a greater extent than seen in control
- renal blood flow [6]: preserved coronary and renal blood flow to a greater extent than seen in control

Substance: Glu-Gly-Thr-Phe-Thr-Ser-Asp-Val-Ser-Ser-Tyr-Leu-Glu-Gly-Gln-Ala-Ala-Lys-Glu-Phe-Ile-Ala-Trp-Leu-Val-Lys-Gly-Arg (EGTFTSDVSSYLEGQAAKEFIAWLVKGR-NH2) [GLP-1 (9-36) amide]
- LV systolic and diastolic function [3]: mitigated the declines
- coronary blood flow [3]: preserved
- renal blood flow [3]: preserved
- systemic vascular resistance [3]: mitigated the declines in LV systolic and diastolic function and the rise
- phosphorylation and activation of AMP kinase (AMP kinase; 60 minutes of perfusion): increased the phosphorylation and the activation of AMP kinase
- AMPK activation in presence of EXE (inhibits activation of the GLP-1 receptor) (AMP kinase): GLP-1 receptor independent
- AMPK activation in presence of EXE (inhibits activation of the GLP-1 receptor) (AMP kinase; listed as GLP-1 (9-36)): not blocked
- AMPK activation under neuroendopeptidase inhibition (NEPI) (AMP kinase; with NEPI): abolished
- AMPK activation in presence of pertussus toxin (PTX) (AMP kinase): pertussus toxin (Gi) and Ca-Calmodulin dependent
- AMPK activation in presence of pertussus toxin (PTX) (AMP kinase; listed as GLP-1 (9-36)): blocked by pertussus toxin
- AMPK activation in presence of STO609 (CAM kinase) (AMP kinase): pertussus toxin (Gi) and Ca-Calmodulin dependent
- AMPK activation in presence of STO609 (CAM kinase) (AMP kinase; listed as GLP-1 (9-36)): blocked by STO609
- coronary blood flow [6]: preserved coronary and renal blood flow to a greater extent than seen in control
- renal blood flow [6]: preserved coronary and renal blood flow to a greater extent than seen in control
- preconditioning donor organs against ischemic injury (myocardium; donor organs): active
- stimulating glucose uptake into myocardium in a non-insulin dependent fashion (myocardium; donor organs): active

Substance: Glucagon-like peptide-1 [GLP-1]
- active half-life time [7]: 1 to 2 min
- half-life time in blood [7]: ≤ 5 min
